# Structures can show the parent of a compound that is named as a salt.
# Target: T1, human cloned 5-HT6 receptors (Homo sapiens, UniProt P50406)
# T1 construct: expressed in transfected cells
# Assay: 5-HT6 receptor affinity following the procedures outlined in WO98/27081
# Format: binding
# Conditions: read-out: pKi values at human cloned 5-HT6 receptors (converted)
# Description: Compounds can be tested following the procedures outlined in WO98/27081.
# T1 sequence (P50406 whole entry): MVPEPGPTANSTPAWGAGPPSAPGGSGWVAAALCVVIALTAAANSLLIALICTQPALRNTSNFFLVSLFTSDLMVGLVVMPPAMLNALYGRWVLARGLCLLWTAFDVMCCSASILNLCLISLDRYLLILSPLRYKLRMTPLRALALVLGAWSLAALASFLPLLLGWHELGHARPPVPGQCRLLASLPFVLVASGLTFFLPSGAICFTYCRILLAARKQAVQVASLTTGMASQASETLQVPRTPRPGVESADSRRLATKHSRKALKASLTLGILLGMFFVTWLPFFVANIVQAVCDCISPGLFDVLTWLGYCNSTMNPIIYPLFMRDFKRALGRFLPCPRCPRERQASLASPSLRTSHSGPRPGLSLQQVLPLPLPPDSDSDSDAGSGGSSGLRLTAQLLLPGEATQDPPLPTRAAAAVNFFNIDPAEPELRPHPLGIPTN
row,Compound,Ki
1,"O=S(=O)(c1ccccc1)c1c[nH]c2c(N3CCNCC3)nccc12 [Example E6, 7-piperazin-1-yl-3-phenylsulfonyl-1H-pyrrolo[2,3-c]pyridine hydrochloride]",< 31.6 nM
2,"O=S(=O)(c1ccccc1F)c1c[nH]c2c(N3CCNCC3)nccc12 [Example E7, 3-(2-Fluorophenyl)sulfonyl-7-piperazin-1-yl-1H-pyrrolo[2,3-c]pyridine hydrochloride]",< 31.6 nM
3,"O=S(=O)(c1cccc(F)c1)c1c[nH]c2c(N3CCNCC3)nccc12 [Example E8, 3-(3-Fluorophenyl)sulfonyl-7-piperazin-1-yl-1H-pyrrolo[2,3-c]pyridine hydrochloride]",< 31.6 nM
4,"Cc1cc(N2CCNCC2)c2ccc(S(=O)(=O)c3ccccc3)cc2n1 [Example E9, 2-Methyl-4-piperazin-1-yl-7-phenylsulfonylquinoline hydrochloride]",< 10 nM
5,"O=S(=O)(c1ccccc1)c1ccnc2c(N3CCNCC3)cccc12 [Example E10, 4-Phenylsulfonyl-8-piperazin-1-yl quinoline]",< 10 nM
6,"O=S(=O)(c1ccccc1)c1ccnc2c(N3CCNCC3)cccc12 [Example E11, 4-Phenylsulfonyl-8-piperazin-1-yl-quinoline hydrochloride]",< 10 nM
7,"Cc1cc(S(=O)(=O)c2ccccc2)c2cccc(N3CCNCC3)c2n1 [Example E12, 2-Methyl-4-phenylsulfonyl-8-piperazin-1-yl-quinoline]",< 10 nM
8,"Cc1cc(S(=O)(=O)c2ccccc2)c2cccc(N3CCNCC3)c2n1 [Example E13, 2-Methyl-4-phenylsulfonyl-8-piperazin-1-ylquinoline hydrochloride]",< 10 nM
9,Cc1cc(S(=O)(=O)c2ccccc2F)c2cccc(N3CCNCC3)c2n1 [Example E14],< 10 nM
10,Cc1cc(S(=O)(=O)c2cccc(F)c2)c2cccc(N3CCNCC3)c2n1 [Example E15],< 10 nM
11,Cc1cc(S(=O)(=O)c2cccc(Cl)c2)c2cccc(N3CCNCC3)c2n1 [Example E16],< 10 nM
